The text below walks through data of PMC10386454 (Pharmaceutics, 2023).

For assay [1], the target named is T1, human MT1 (Homo sapiens, UniProt P48039). The assay can be described thus: Inhibition of forskolin-stimulated cAMP production, HEK293 cells expressing MT1. Details: expressed in transfected cells. In kind it is cell-based. The settings on record: single concentration: extracts […] (Ex18 0.005 mg/mL), melatonin 1 µM; normalized to mock cell responses. On the technique in general: cAMP levels reflect the balance of adenylyl cyclase and phosphodiesterase activity.
Target sequence in this assay (P48039 whole entry): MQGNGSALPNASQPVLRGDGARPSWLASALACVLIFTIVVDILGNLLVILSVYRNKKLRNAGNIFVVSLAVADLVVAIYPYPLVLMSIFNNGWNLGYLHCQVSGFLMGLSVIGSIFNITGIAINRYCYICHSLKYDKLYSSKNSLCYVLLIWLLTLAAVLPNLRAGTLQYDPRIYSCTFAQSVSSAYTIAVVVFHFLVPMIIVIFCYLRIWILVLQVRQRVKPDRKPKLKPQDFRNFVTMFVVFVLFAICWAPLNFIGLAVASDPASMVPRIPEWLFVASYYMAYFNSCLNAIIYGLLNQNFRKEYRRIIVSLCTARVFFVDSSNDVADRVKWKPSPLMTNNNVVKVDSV

The test system of assay [2] is HEK293 empty vector transfected cells (mock). Kind of assay: Forskolin-stimulated cAMP production in mock-transfected HEK293 cells. Type of assay: cell-based, human. The settings on record: extracts […] (Ex18 0.005 mg/mL), melatonin 1 µM.
Assay [3] concerns the target T1, human MT1. The assay can be described thus: β-arrestin2 recruitment assay (PathHunter), MT1. Type of assay: cell-based. Details: host or cells: HEK 293 PathHunter parental cells, transient transfection of the receptor. The settings on record: single saturating concentration. Background: Arrestin recruitment assays detect the binding of arrestin to an activated receptor.
Target sequence in this assay (P48039 whole entry): as above
Target sequence in this assay (P32121 whole entry partner): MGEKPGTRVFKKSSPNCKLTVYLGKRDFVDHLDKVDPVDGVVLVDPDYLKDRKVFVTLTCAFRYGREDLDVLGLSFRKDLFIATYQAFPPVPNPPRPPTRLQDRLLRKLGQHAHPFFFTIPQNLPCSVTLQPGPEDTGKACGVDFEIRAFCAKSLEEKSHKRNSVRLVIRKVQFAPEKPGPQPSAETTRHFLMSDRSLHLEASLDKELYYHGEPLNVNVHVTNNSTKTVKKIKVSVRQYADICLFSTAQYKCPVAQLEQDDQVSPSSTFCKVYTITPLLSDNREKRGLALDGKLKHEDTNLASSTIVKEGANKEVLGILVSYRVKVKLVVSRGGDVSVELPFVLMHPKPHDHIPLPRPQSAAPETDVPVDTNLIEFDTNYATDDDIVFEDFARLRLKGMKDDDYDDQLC

Assay [4] has as its system HEK293 empty vector transfected cells (mock). Kind of assay: β-arrestin2 recruitment assay (PathHunter), control cells with β-gal donor not fused to melatonin receptors. Type of assay: cell-based, human. The settings on record: extracts […], Ex18 0.005 mg/mL, MLT 1 µM.
Assay [5] has the same test system. The assay can be described thus: ERK1/2 activation assay in mock HEK293 cells. Type of assay: cell-based, human. The settings on record: MLT 1 µM.
Assay [6] has as its target T1, human MT1. The assay can be described thus: 2-[125I]iodomelatonin competitive binding assay, MT1. Details: expressed in transfected cells.
Target sequence in this assay (P48039 whole entry): as the sequence (P48039 whole entry) above
The next assay has as its target T2, human MT2 receptor (Homo sapiens, UniProt P49286).
T2 construct: expressed in transfected cells
T2 sequence (P49286 1-362): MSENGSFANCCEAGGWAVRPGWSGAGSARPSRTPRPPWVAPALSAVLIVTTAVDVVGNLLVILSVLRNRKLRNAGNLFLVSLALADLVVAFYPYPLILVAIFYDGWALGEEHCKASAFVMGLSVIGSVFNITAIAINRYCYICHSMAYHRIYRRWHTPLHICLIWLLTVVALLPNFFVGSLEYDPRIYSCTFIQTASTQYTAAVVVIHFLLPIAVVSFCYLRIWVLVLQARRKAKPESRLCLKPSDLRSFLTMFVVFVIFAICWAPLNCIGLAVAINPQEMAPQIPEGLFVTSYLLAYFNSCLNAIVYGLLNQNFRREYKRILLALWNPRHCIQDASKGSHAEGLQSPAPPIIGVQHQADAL
The assay can be described thus: 2-[125I]iodomelatonin competitive binding assay, MT2.

Regarding `COc1ccc2[nH]cc(CCNC(C)=O)c2c1` [Melatonin, N-acety-5-methoxyltryptamine], the “effect on FSK-stimulated cAMP production, cells expressing MT1” value at human MT1 [1] was “decreased FSK-stimulated cAMP production”. Also, the “effect on forskolin (FSK)-stimulated cAMP levels in mock cells” value in assay [2] is reported as “did not show any effect”. On human MT1 [3], the “β-arrestin2 recruitment, MT1-β-gal donor fusion protein” value is “induced β-arrestin2 recruitment”. Besides, the “β-arrestin2 recruitment in control cells (β-gal donor alone)” value in assay [4] is “Neither melatonin nor any extract induced β-arrestin2 recruitment”. The “effect on ERK1/2 pathway in mock cells, in words” value in assay [5] is “without effect”.
For the molecule maltodextrin, at human MT1 [6], the “2-[125I]-MLT binding to MT1, result in words” value is given as “no impact”. Further, on human MT2 receptor, the “2-[125I]-MLT binding to MT2, result in words” value is on record as “no impact”.
